Four compounds from US5935606A, “Reversing excitotoxic CNS damage by cellular implantation” (priority 1995, dated 1999) can be followed below.

A value given as a limit tells only on which side of the number the result lay.

Experiment [1] has as its target NMDA receptors. The experiment in a line: [3H]CGP-39653 saturation binding, spinal cord membranes. The note with it: normal rat whole spinal cord; one-site binding. On the procedure:
(§1) Changes in NMDA receptor levels were determined at three weeks following nerve injury (one week following transplantation), as a marked distinction in responses to sensory stimuli between adrenal medullary and control transplanted animals can be made at this time point. […] [^3 H]CGP-39653 (D,L-(E)-2-amino-4-propyl-5-phosphono-3-pentenoate), a selective high-affinity competitive antagonist at NMDA receptors, was used to label the binding sites. In preliminary experiments, binding characteristics of this ligand were determined in the rat spinal cord. Saturation assays were performed on whole spinal cord tissue, and the results compared to those obtained in cortical membranes. NMDA binding sites were analyzed using previously described procedures with slight modification [M. A. Sills et al., Eur. J. Pharmacol., 192:19-24 (1991)]. Animals were decapitated and the spinal cords were rapidly extruded with saline pressure. […] This volume of tissue corresponded to approximately 110 μg of protein as determined using the Bradford method (BioRad, Richmond, Calif.). […] Nonspecific binding was determined in parallel tubes containing 100 mM L-glutamiate. […] Radioactivity was counted with a Beckman 3270 scintillation counter at 48-52% efficiency. Estimates of binding parameters were determined using the program LIGAND [P. J. Munson and D. Rodbard, Anal. Biochem., 197:220-239 (1980)].

The target of experiment [2] is NMDA receptors. The experiment can be described thus: [3H]CGP-39653 saturation binding, cortical membranes. The settings on record: normal rat cortex; one-site binding. On the procedure:
as §1

For experiment [3], the system named is NMDA receptor. The experiment can be described thus: NMDA-induced thermal hyperalgesia (Hargreaves paw withdrawal latency) in rats with spinal subarachnoid transplants. The format is in vivo, rat. The note with it: for effect of antagonist pretreatment on NMDA dose-response curve, noxious thermal stimuli, compared to saline pretreatment: adrenal medullary transplanted animals, s.c. 20 min prior to NMDA (2.5, 5.0, 10.0 nmol), naloxone 2.0 mg/kg, phentolamine 10.0 mg/kg. On the procedure: (§2) Experimental procedures were approved and carried out in accordance the Guidelines of the Animal Care Committee, University of Illinois at Chicago. Male Sprague-Dawley rats weighing 325-375 g (Sasco, Madison, Wis.) at the beginning of the study were used as both graft donors and recipients. Graft recipients were anesthetized (Nembutal, 40 mg/kg, i.p., supplemented as necessary) and implanted with intrathecal catheters according to methods described by Yaksh and Rudy [T. L. Yaksh and T. A. Rudy, Physiol. Behav., 17:1031-1036 (1976)]. Catheters were made of PE10 tubing with a knot sealed with dental acrylic at 7.5 cm. The catheters were threaded through a slit in the atlanto-occipital membrane to the lumbar spinal subarachnoid space, and the free ends were anchored to the skull using cyanoacrylate. Donor adrenal medullary tissue was dissected from cortical tissue and cut into small pieces (<0.5 cm^3). Adrenal medullary tissue from two adrenal glands was used as this amount was shown in previous studies to produce significant antinociception using several behavioral tests [A. T. Hama and J. Sagen, Pain, 52:223-231 (1993); J. Sagen et al., Pain, 42:69-79 (1990); H. Wang and J. Sagen, J. Neural Transplant. Plastic., 5:49-64 (1994)]. Control animals received equal volumes of striated muscle tissue from donors. Graft tissue was implanted in the spinal subarachnoid space via laminectomy at the level of the lumbar enlargement as described previously [J. Sagen et al., Brain Res., 384:189-194 (1986); J. Sagen et al., Pain, 42:69-79 (1990)]. Following surgical procedures, musculature was sutured (4-0 silk), and the skin closed with wound clips. Animals were housed individually and allowed food and water ad libitum.
Animals were allowed to recover from surgical procedures for two weeks prior to commencement of behavioral testing. Responses to noxious and innocuous stimuli were determined using three tests sequentially: the Hargreaves model for thermal hyperalgesia [K. M. Hargreaves et al., Pain, 32:223-231 (1988)], the Randall-Selitto test for mechanical hyperalgesia, and von Frey thresholds for tactile allodynia. To assess response to a noxious thermal stimulus, rats were placed on an elevated glass floor beneath an inverted clear plastic cage, and a radiant heat source beneath the glass was aimed at the plantar surface of the hindpaw. The onset of light activated a timer which was terminated by a hindpaw withdrawal response. […] The apparatus automatically terminates at a scale reading of 25 (=1000 g). […]
(§3) The first group of animals was used in order to determine the time course and dose-responsiveness to intrathecally injected NMDA. […] Baseline responses to all three tests were assessed at the beginning of each test day prior to drug injection. […]

Experiment [4] relates to NMDA receptor. The experiment in a line: NMDA-induced mechanical hyperalgesia (Randall-Selitto test) in rats with spinal subarachnoid transplants. The experiment is classed as in vivo, rat. The note with it: for effect of antagonist pretreatment on NMDA dose-response curve, noxious mechanical stimuli, compared to saline pretreatment: adrenal medullary transplanted animals, s.c. 20 min prior to NMDA (2.5, 5.0, 10.0 nmol), naloxone 2.0 mg/kg, phentolamine 10.0 mg/kg. On the procedure:
as §2, with “Graft tissue was implanted in the spinal subarachnoid space via laminectomy at the level of the lumbar enlargement as described previously [J. Sagen et al., Brain Res., 384:189-194 (1986); J. Sagen et al., Pain, 42:69-79 (1990)]. Following surgical procedures, musculature was sutured (4-0 silk), and the skin closed with wound clips. Animals were housed individually and allowed food and water ad libitum.” left out
(§4) Animals were allowed to recover from surgical procedures for two weeks prior to commencement of behavioral testing. Responses to noxious and innocuous stimuli were determined using three tests sequentially: the Hargreaves model for thermal hyperalgesia [K. M. Hargreaves et al., Pain, 32:223-231 (1988)], the Randall-Selitto test for mechanical hyperalgesia, and von Frey thresholds for tactile allodynia. […] The apparatus automatically terminates at a scale reading of 25 (=1000 g). […]
as §3

Experiment [5] relates to NMDA receptor. The experiment can be described thus: NMDA-induced tactile allodynia (von Frey thresholds) in rats with spinal subarachnoid transplants. The format is in vivo, rat. The note with it: adrenal medullary transplanted animals; s.c. 20 min prior to NMDA (2.5, 5.0, 10.0 nmol); naloxone 2.0 mg/kg, phentolamine 10.0 mg/kg. On the procedure: Experimental procedures were approved and carried out in accordance the Guidelines of the Animal Care Committee, University of Illinois at Chicago. Male Sprague-Dawley rats weighing 325-375 g (Sasco, Madison, Wis.) at the beginning of the study were used as both graft donors and recipients. Graft recipients were anesthetized (Nembutal, 40 mg/kg, i.p., supplemented as necessary) and implanted with intrathecal catheters according to methods described by Yaksh and Rudy [T. L. Yaksh and T. A. Rudy, Physiol. Behav., 17:1031-1036 (1976)]. Catheters were made of PE10 tubing with a knot sealed with dental acrylic at 7.5 cm. […]
as §4, §3

One may read the Kd as the constant that tells how readily two partners part at equilibrium. Read a low Kd as tighter binding. In the case of `CCC/C(=C\C(N)C(=O)O)CP(=O)(O)O` (racemic) [[^3 H]CGP-39653, D,L-(E)-2-amino-4-propyl-5-phosphono-3-pentenoate], the Kd at NMDA receptors [1] amounted to 12.9 ± 1.8 nM; at NMDA receptors [2] it was 15.4 nM.
Consider `CN[C@H](CC(=O)O)C(=O)O` [NMDA, N-methyl-D-aspartate], for which the “time to significant thermal hyperalgesia in control animals” value in the experiment on NMDA receptor [3] (5 nmol NMDA i.t., control transplanted animals, P<0.05) is at most 5 min. In the experiment on NMDA receptor [3] (intrathecally administered NMDA, all cases), the “time of peak effect, thermal hyperalgesia” value was found to be 30 min. The “time of peak effect, mechanical hyperalgesia” value in the experiment on NMDA receptor [4] (intrathecal NMDA) was determined as 30 min.
Turning to `C=CCN1CC[C@]23c4c5ccc(O)c4O[C@H]2C(=O)CC[C@@]3(O)[C@H]1C5` [naloxone], the “effect of antagonist pretreatment on NMDA dose-response curve, noxious thermal stimuli, compared to saline pretreatment” value in the experiment with NMDA receptor [3] was “no effect”. The “effect of antagonist pretreatment on NMDA dose-response curve, noxious mechanical stimuli, compared to saline pretreatment” value with NMDA receptor [4] is reported as “no effect”. Also, the “effect of antagonist pretreatment on NMDA dose-response curve, innocuous tactile stimuli, compared to saline pretreatment” value in the experiment on NMDA receptor [5] is “no effect”.
For the compound `Cc1ccc(N(CC2=NCCN2)c2cccc(O)c2)cc1` [phentolamine], the “effect of antagonist pretreatment on NMDA dose-response curve, noxious thermal stimuli, compared to saline pretreatment” value in the experiment on NMDA receptor [3] was “significantly shifted the dose-response curves downward”. Besides, the “effect of antagonist pretreatment on NMDA dose-response curve, noxious mechanical stimuli, compared to saline pretreatment” value in the experiment with NMDA receptor [4] is “significantly shifted the dose-response curves downward”. Moreover, the “effect of antagonist pretreatment on NMDA dose-response curve, innocuous tactile stimuli, compared to saline pretreatment” value in the experiment on NMDA receptor [5] is given as “significantly shifted the dose-response curves downward”.
